Patent publication US5561149A, “Use of certain imidazol carbazols in treating stress-related manic-depressive disorders” (priority 1986, dated 1996)
Where two headings read alike, the source gives them in different places.

Legend:
[1] = tested on: mice (approach-oriented behaviour); test: Approach-oriented behaviour in mice in stress-situations; type: in vivo, mouse; details: for approach-oriented social behaviours: food deprived mice under white light; for effect on promoting social interaction under stress related conditions: mouse, in vivo
Description: Trials have been carried out on the effects of the compounds of the invention on approach-oriented behaviour in mice. The compounds increase approach-oriented behaviour in stress-situations normally inhibitory to social responses. Thus situations involving unfamiliar surroundings, contact with foreign aggressive opponents, competition for food, were created under reversed lighting conditions whereby observations were performed during the darkphase. Under these conditions, untreated rodents exihibit high levels of flight, particularly depressive ambivalence and escape behaviour, but low levels of social behaviour involving approach activity.

[2] = tested on: male OF-1 mice (social interactions and feeding); test: Competitive feeding, Study C; type: in vivo, mouse
Description: In this test 8 pairs of male OF-1 mice deprived of food for 6 hours are forced to compete over 6 minutes for a single food pellet. […]

healthy human volunteers = test: Tolerability in healthy human volunteers; type: in vivo; details: single doses
Description: (§1) Toxicity and Tolerability studies may be effected in conventional manner with the compounds of the invention to determine the upper dosage.

5-HT3 receptors [3] = details: rabbit heart; P. Donatsch et al., Br.j. Pharmacol. 1984, 81,348; cited from earlier work
[4] = Bioavailability and pharmacokinetic profile after nasal / oral administration; type: in vivo, mammals including rhesus monkeys and humans; details: plasma; ca. 5 to 10 minutes following nasal administration
Description: The bioavailability and pharmacokinetic profile of the compounds of the invention may be determined in conventional manner, e.g. in mammals including rhesus monkeys and humans. The concentrations of the compounds of the invention in the blood plasma after administration of from about 0.01 to about 10 mg/kg to each nostril, e.g. 7.5 mg in the case of compound E, locally to the nasal mucous membrane, e.g. as a spray, may be determined in conventional manner by e.g. radioimmunoassay or HPLC methods. The compounds of the invention are rapidly absorbed, e.g. over about 10 minutes.

[5] = tested on: intruder mice (approach-oriented social activities); test: Intruder test, Study B (large cage); type: in vivo, mouse; details: for escape behaviour: single compounds: 1 microgram/kg, in general about 0.01 to about 100 microgram/kg i.p.
Description: Study A was modified using a large cage (59×38.5×20 cm) which allowed greater freedom of movement so that elements of defense could be separated more clearly from the approach-oriented social activities. The compounds of the invention were given i.p. at doses from about 0.01 to about 100 microgram/kg 45 minutes before the encounter.
Indruders received the drug. […] In this test at a dose of 1 microgram/kg compound E promoted 8 elements of approach oriented social activities by about 40 per cent. […] Compound H at the same dose promoted 3 elements of approach-oriented social activities by about 40 per cent.

[6] = tested on: intruder mice (social behaviour); test: Intruder test, Study A; type: in vivo, mouse; details: 1 mg/kg p.o., 1 hour before the encounter
Description: A foreign male mouse (intruder), placed for 6 minutes, into the cage of an isolated male is attacked and responds with defensive escape patterns collectively known as "flight". Flight and associated defensive activities over-ride the intruder's tendency to approach the attacker so that much of the behaviour includes social forms of ambivalence.
Intruders receiving oral doses of benzodiazepines show less of these defensive activities and more approach-oriented behaviour (A. K. Dixon Triangle 1982, 21, 95-105; M. Krisak, Br. J. Pharmacol 1975, 55, 141-150), e.g. investigation, aggression and sexual activity.
The compounds of the invention are administered 1 hour before the encounter per-orally at from about 0.1 to about 10 mg/kg. Groups of 8 mice pairs are used. The frequency and duration of social and non-social behaviour of the mice were recorded using ethological techniques.

5-HT3 receptors [7] = details: guinea pig ileum; P. Donatsch et al., Br.j. Pharmacol. 1984, 81,348; cited from earlier work
[8] = 26 week toxicity study in the dog; details: in vivo, po, 26 weeks, read-out: no toxic effect bowel (dose), dog
Description: as §1
(§2) Toxicity studies may be effected for example in the rat and the dog over for example 26 weeks.

[9] = tested on: mice (stretched attend postures); test: Stretched Attend Postures (SAP) (No conflict); type: in vivo, mouse; details: doses higher than 0.1 mg/kg
Description: Mice placed upon an unfamiliar elevated platform in a novel environment display characteristic stretched body postures called SAP's which signify amibivalence.
The compounds of the invention administered p.o. at a dose of from about 0.1 to about 10 mg/kg. 2 hours before the test reduce the duration of SAP when placed on the platform for 2 minutes under conditions where no other mice are present.

5-HT3 receptors [10] = details: rabbit vagus; P. Donatsch et al., Br.j. Pharmacol. 1984, 81,348; cited from earlier work
plasma corticosterone = test: Corticosterone levels (Endocrinological profile); type: in vivo, mouse; details: reduction at high, increase of basal levels at low doses
[11] = 26 week toxicity study in the rat; details: in vivo, po, 26 weeks, read-out: no toxic effect (dose), rat
Description: as §1, §2

[12] = Bioavailability of co-administered peptide (salmon calcitonin) on nasal administration; type: in vivo; details: rhesus monkey
Description: Additionally, the compounds of the invention when administered, e.g. at a dose of from 0.01 to 10 mg/kg with a therapeutically effective dosage of another compound, e.g. a peptide, such as salmon calcitonin increases the absorption thereof.

[13] = tested on: mice (stretched attend postures); details: H. P. Kasermann, Psychopharmacology 1986, 89, 31-37; cited from earlier work
[14] = 0.1 mg/kg p.o., 2 hours before the encounter

CC(NC(C)(C)C)C(=O)c1cccc(Cl)c1 (stereo not shown) [bupropion]
approach-oriented social behaviours [1]: increase approach-oriented social behaviours | effect on promoting social interaction under stress related conditions [1]: pronounced effect | increase in mean frequency of social interactions ([2]; 2.5 mg/kg, competitive feeding experiment study c)): 179 per cent

CN1C(=O)CN=C(c2ccccc2)c2cc(Cl)ccc21 [diazepam]
ambivalent behaviour ([1]; reversed lighting, darkphase, stress-situations): reduce the ambivalent behaviour | social behaviour / approach-oriented behaviour in stress-situations ([1]; reversed lighting, darkphase, stress-situations normally inhibitory to social responses): can increase social behaviour

CN1[C@@H]2CC[C@H]1C[C@@H](OC(=O)c1c[nH]c3ccccc13)C2 [compound E, Indol-3-yl carboxylic acid endo-8-methyl-8-aza-bicyclo-[3.2.1]oct-3-yl ester]
well tolerated single dose without relevant side effects (healthy human volunteers): up to 150 mg | antagonistic action against 5-HT3 receptors (5-HT3 receptors [3]): antagonistic action | concentration at 10 min [4]: 200 ng/mL | promotion of 8 elements of approach oriented social activities ([5]; 1 microgram/kg i.p., 45 minutes before the encounter, 8 elements): about 40 per cent | escape behaviour [5]: reduced escape behaviour | frequency of social inter-action ([6]; increased from ca 60): ~80 | duration of social inter-action ([6]; increased from ca 90): ~120 s | effect on promoting social interaction under stress related conditions [1]: pronounced effect | antagonistic action against 5-HT3 receptors (5-HT3 receptors [7]): antagonistic action | NOAEL at 4368 h [8]: 5 to 20 mg/kg/day | effect on SAP at higher doses [9]: the effect was less | increase in mean frequency of social interactions ([2]; 0.01 mg/kg, competitive feeding experiment study c)): 54 per cent | increase in duration of feeding [2, 14]: 55 per cent | increase in duration of social interactions relative to controls [2, 14]: 321 per cent | increase in frequency of feeding [2, 14]: 4 per cent | increase in frequency of social interactions relative to controls [2, 14]: 54% | antagonistic action against 5-HT3 receptors (5-HT3 receptors [10]): antagonistic action | corticosterone profile compared with diazepam (plasma corticosterone): analogous to that observed with diazepam | NOAEL at 4368 h [11]: 16 to 45 mg/kg/day

salmon calcitonin
bioavailability of salmon calcitonin (AUC up to 2 hours), with compound E ([12]; salmon calcitonin 100 IU + compound E 15 mg, half to each nostril): 1.632 m IU/ml/hr/plasma | bioavailability of salmon calcitonin (AUC up to 2 hours), before increase by compound E ([12]; salmon calcitonin 100 IU nasal, without compound E): 0.08 mIU/ml/hr

Cc1nccn1CC1CCc2c(c3ccccc3n2C)C1=O (stereo not shown) [compound H, 1,2,3,9-tetrahydro-9-methyl-3-[(2-methyl-1H-imidazol-1-yl)methyl]-4H-carbazol-4-one]
promotion of 3 elements of approach-oriented social activities ([5]; 1 microgram/kg i.p., 45 minutes before the encounter, 3 elements): about 40 per cent | cage exploratory behaviour ([5]; 1 microgram/kg i.p., indicative of a stimulant effect): increase cage exploratory behaviour | escape behaviour [5]: effect on escape behaviour was less

CN(C)CCCN1c2ccccc2CCc2ccccc21 [impramine]
approach-oriented social behaviours [1]: increase approach-oriented social behaviours

O=C1CC2(CCCC2)CC(=O)N1CCCCN1CCN(c2ncccn2)CC1 [buspirone]
incidence of SAP's [13]: reduce the incidence of SAP's
